Results from ChEMBL document CHEMBL4765458, “Synthesis and biological evaluation of organoselenium (NSAIDs-SeCN and SeCF) derivatives as potential anticancer agents” (Eur J Med Chem, 2020).
Activity calls are given as the source filed them. No cut-off for these calls is given here.

Columns and labels:
[1] = Antioxidant activity assessed as bleomycin-Fe2+-induced DNA degradation by measuring absorbance at 0.1 mg/ml after 1 hr; type: functional
[2] = Antioxidant activity assessed as DPPH radical scavenging activity incubated for 30 mins under dark condition relative to control; type: functional; set-up: concentration or dose not given beside the values
[3] = system: HeLa; experiment: Cytotoxicity against human HeLa cells assessed as reduction in cell viability measured after 48 hrs by MTT assay; type: functional, cell-based
[4] = system: MCF7; experiment: Cytotoxicity against human MCF7 cells assessed as reduction in cell viability measured after 72 hrs by MTT assay; type: functional, cell-based; details: MCF7, 72 h
[5] = system: MCF7; experiment: Induction of apoptosis in human MCF7 cells assessed as down regulation of Bcl-2 expression at IC50 measured after 48 hrs by ELISA relative to control; type: functional
[6] = system: A549; experiment: cells; details: Homo sapiens, A549, 48 h
Description: Cytotoxicity against human A549 cells assessed as reduction in cell viability measured after 48 hrs by MTT assay

[7] = system: SW480; experiment: Cytotoxicity against human SW480 cells assessed as reduction in cell viability measured after 72 hrs by MTT assay; type: functional, cell-based; details: SW480, 72 h
[8] = system: MCF7; experiment: Cytotoxicity against human MCF7 cells assessed as reduction in cell viability measured after 48 hrs by MTT assay; type: functional, cell-based; details: MCF7, 48 h
[9] = system: A549; experiment: Cytotoxicity against human A549 cells assessed as reduction in cell viability measured after 72 hrs by MTT assay; type: functional, cell-based; details: A549, 72 h
[10] = Antioxidant activity assessed as GPx-like activity by measuring oxidation of NADPH to NADP+ by NADPH-reductase coupled assay; type: functional
[11] = system: MCF7; experiment: Induction of apoptosis in human MCF7 cells assessed as up regulation of caspase-3 expression at IC50 measured after 48 hrs by ELISA relative to control; type: functional
[12] = system: MCF7; experiment: Induction of apoptosis in human MCF7 cells assessed as up regulation of IL-2 expression at IC50 measured after 48 hrs by ELISA relative to control; type: functional
[13] = system: MCF7; experiment: Cytotoxicity against human MCF7 cells assessed as reduction in cell viability measured after 24 hrs by MTT assay; type: functional, cell-based; details: MCF7, 24 h
[14] = system: HeLa; experiment: Cytotoxicity against human HeLa cells assessed as reduction in cell viability measured after 72 hrs by MTT assay; type: functional, cell-based
[15] = system: SW480; experiment: Cytotoxicity against human SW480 cells assessed as reduction in cell viability measured after 48 hrs by MTT assay; type: functional, cell-based; details: SW480, 48 h
[16] = system: SW480; experiment: Cytotoxicity against human SW480 cells assessed as reduction in cell viability measured after 24 hrs by MTT assay; type: functional, cell-based; details: SW480, 24 h
[17] = system: A549; experiment: Cytotoxicity against human A549 cells assessed as reduction in cell viability measured after 24 hrs by MTT assay; type: functional, cell-based; details: A549, 24 h
[18] = system: HeLa; experiment: Cytotoxicity against human HeLa cells assessed as reduction in cell viability measured after 24 hrs by MTT assay; type: functional, cell-based

| Structure (SMILES) | deltaA [1] | inhibition [2] | IC50 [3] | IC50 [4] | Activity [5] | IC50 [6] | IC50 [7] | IC50 [8] | IC50 [9] | Activity [10] | Activity [11] | Activity [12] | IC50 [13] | IC50 [14] | IC50 [15] | IC50 [16] | IC50 [17] | IC50 [18] | fold change (FC) [11] |
| --- | --- | --- | --- | --- | --- | --- | --- | --- | --- | --- | --- | --- | --- | --- | --- | --- | --- | --- | --- |
| O=C1O[C@H]([C@@H](O)CO)C(O)=C1O | 295 | 92.4% |  |  |  |  |  |  |  |  |  |  |  |  |  |  |  |  |  |
| CC(C)Cc1ccc(C(C)C(=O)NCCC[Se]C(F)(F)F)cc1 (stereo unspecified) |  | 68.7% | 17.4 µM | 2.8 µM | >50% | 15.2 µM | 4.2 µM | 4.3 µM | 18.5 µM | Active | Active | Active | 3.4 µM | 19.7 µM | 3.3 µM | 4.9 µM | 9.4 µM | 11.5 µM |  |
| CC(=O)Oc1ccccc1C(=O)NCCC[Se]C(F)(F)F |  | 72.5% | 26.3 µM | 4.4 µM | >50% | 18.6 µM | 7.8 µM | 4.2 µM | 17.3 µM | Active |  | Active | 3.5 µM | 15.4 µM | 7.2 µM | 8.2 µM | 16.4 µM | 28.7 µM | 5 |
